The results in this text go back to patent publication US11091501B2, “Heterocyclic compounds as RSV inhibitors” (Enanta Pharmaceuticals, Inc., priority 2017, dated 2021).

This experiment has as its system Human RSV-A (“Long” strain). In words: RSV in vitro cytoprotection assay (CPE, ATPlite) in HEp-2 cells. In kind it is cell-based. Particulars: human respiratory syncytial virus, 96 h; HEp-2 cells, 4-day incubation, ATPlite readout; read-out: Human RSV-A (“Long” strain) EC50. An excerpt: RSV is a single stranded negative sense RNA virus that causes respiratory tract infections which can be dangerous to infants, the elderly, and immunosuppressed individuals. Currently there is no vaccine, and therapeutic options are both costly and of limited effectiveness. These approved treatments are Ribavirin, and Palivizumab/Synagis (a monoclonal antibody). RSV has two genotypes, A and B, which differ primarily in the structure of the virus' surface “G” attachment protein. Our current primary screen focuses on RSV-A and uses an in vitro cytoprotection assay where compounds are added in 2-fold dilutions to cells which are then subjected to fully replicative viral particles. Cell viability is measured several days later along with separate measurements of compound cytotoxicity. This report focuses on the results of our most recent screening of compounds.
HEp-2 cells, (originally derived from tumors grown in irradiated-cortisonised weanling rats that had been injected with epidermoid carcinoma tissue from a person's larynx, but later found to be indistinguishable from HeLa cells by PCR DNA analysis), were used for the culturing of genotype A, “Long” strain RSV. Flasks were inoculated with RSV and viral stocks were collected once cytopathic effect (CPE) was greater than 90%. Viral stocks in 25% sucrose media were snap frozen using liquid nitrogen to increase viral stability. Viral stock titers were quantified by tissue culture infectious dose 50% (TCID50) using 8,000 cells per well and 3-fold viral dilutions across a 96-well plate, cultured for 4 days.
Following extensive parameter testing, the final assay is run as follows: HEp-2 cells are seeded into the inner 60 wells of a 96-well plate at 8,000 cells per well in a volume of 50 μL using Growth Media (DMEM without phenol red, 1% L-Glut, 1% Penn/Strep, 1% nonessential amino acids, 10% FBS). 2-Fold serial dilutions of control and test compounds are added to the wells in duplicate in a total volume of 25 μL. Viral stock is then added to the wells in a volume of […] the total volume of each well to 100 μL. Each 96-well plate has a control column of 6 wells with cells and virus but no compound (negative control, max CPE), a column with cells but no compound or virus (positive control, minimum CPE), and a column with no cells or virus or compound (background plate/reagent control). The control wells with cells but no virus are given an additional 25 uL of growth media containing an equal quantity of sucrose as those wells receiving the viral stock in order to keep consistent in media and volume conditions. The outer wells of the plate are filled with 125 μL of growth media to act as a thermal and evaporative moat around the test wells. Following a 4-day incubation period, the plates are read using ATPlite (50 uL added per well), which quantifies the amount of ATP (a measure of cell health) present in each well. Assay plates are read using the Envision luminometer. In parallel, cytotoxicity is examined on an additional 96-well plate treated in an identical manner, but substituting the 25 μL of viral stock for 25 μL of growth media. […] EC50 ranges are as follows: A<0.01 μM; B 0.01-0.05 μM; C>0.05 μM.
As usually defined, the EC50 is the midpoint of the concentration-response curve. As to `Cc1cnc(N2CC3(CCOCC3)C2)c(C(=O)Nc2ccc(C(=O)N3CCc4cc(-c5nc6ccccc6[nH]5)sc4-c4ccc(F)cc43)cc2)c1` [Example 3], the EC50 was less than 10 nM. The value for `O=C(Nc1c(F)cc(F)cc1F)c1cc2c(s1)-c1ccc(F)cc1N(C(=O)c1ccc(NC(=O)c3cc(F)cnc3N3CC4(CCOCC4)C3)cc1)CC2` [Example 4] was greater than 50 nM; that for `Cc1cnc(N2CC3(CCOCC3)C2)c(C(=O)Nc2ccc(C(=O)N3CCc4cc(C(=O)Nc5c(F)cccc5C(F)(F)F)sc4-c4ccc(F)cc43)cc2)c1` [Example 5] was less than 10 nM. With `Cc1cnc(N2CC3(CCOCC3)C2)c(C(=O)Nc2ccc(C(=O)N3CCc4cc(C(=O)Nc5c(C)cccc5C)sc4-c4ccc(F)cc43)cc2)c1` [Example 6], the EC50 was less than 10 nM. As for `Cc1cnc(N2CC3(CCOCC3)C2)c(C(=O)Nc2ccc(C(=O)N3CCc4cc(C(=O)Nc5c(C)cccc5F)sc4-c4ccc(F)cc43)cc2)c1` [Example 7], the EC50 was less than 10 nM. As for `Cc1cnc(N2CC3(CCOCC3)C2)c(C(=O)Nc2ccc(C(=O)N3CCc4cc(C(=O)Nc5ccccc5F)sc4-c4ccc(F)cc43)cc2)c1` [Example 8], the figure is less than 10 nM. As for `Cc1cnc(N2CC3(CCOCC3)C2)c(C(=O)Nc2ccc(C(=O)N3CCc4cc(C(=O)Nc5c(Cl)cccc5Cl)sc4-c4ccc(F)cc43)cc2)c1` [Example 9], the figure is less than 10 nM; as for `O=C(Nc1ccc(C(=O)N2CCc3cc(-c4nc5ccccc5[nH]4)sc3-c3ccc(F)cc32)cc1)c1cc2ccccc2nc1N1CC2(CCOCC2)C1` [Example 10], 10 to 50 nM. As for `Cc1cnc(N2CC3(CCOCC3)C2)c(C(=O)Nc2ccc(C(=O)N3CCc4cc(C(=O)Nc5c(C)cccc5C#N)sc4-c4ccc(F)cc43)cc2)c1` [Example 11], the EC50 was less than 10 nM. As to `Cc1cnc(N2CC3(CCOCC3)C2)c(C(=O)Nc2ccc(C(=O)N3CCc4cc(C(=O)Nc5c(F)cccc5F)sc4-c4ccc(F)cc43)cc2)c1` [Example 12], the EC50 was less than 10 nM. Turning to `Cc1cnc(N2CC3(CCOCC3)C2)c(C(=O)Nc2ccc(C(=O)N3CCc4cc(C(=O)Nc5c(F)cc(F)cc5F)sc4-c4ccc(F)cc43)cc2)c1` [Example 13], the EC50 was less than 10 nM. The value for `Cc1cccc(F)c1NC(=O)c1cc2c(s1)-c1ccc(F)cc1N(C(=O)c1ccc(NC(=O)c3cc4ccccc4nc3N3CC4(CCOCC4)C3)cc1)CC2` [Example 14] was less than 10 nM; that for `O=C(Nc1c(F)cc(F)cc1F)c1cc2c(s1)-c1ccc(F)cc1N(C(=O)c1ccc(NC(=O)c3cc4ccccc4nc3N3CC4(CCOCC4)C3)cc1)CC2` [Example 15] was less than 10 nM. In the case of `O=C(Nc1c(F)cccc1F)c1cc2c(s1)-c1ccc(F)cc1N(C(=O)c1ccc(NC(=O)c3cc4ccccc4nc3N3CC4(CCOCC4)C3)cc1)CC2` [Example 16], the EC50 was less than 10 nM. As for `N#Cc1cnc(N2CC3(CCOCC3)C2)c(C(=O)Nc2ccc(C(=O)N3CCc4cc(C(=O)Nc5c(F)cc(F)cc5Cl)sc4-c4ccc(F)cc43)cc2)c1` [Example 17], the figure is 10 to 50 nM; as for `N#Cc1cnc(N2CC3(CCOCC3)C2)c(C(=O)Nc2ccc(C(=O)N3CCc4cc(C(=O)Nc5c(Cl)cccc5Cl)sc4-c4ccc(F)cc43)cc2)c1` [Example 18], 10 to 50 nM. The value for `O=C(Nc1c(F)cccc1F)c1cc2c(s1)-c1ccc(F)cc1N(C(=O)c1ccc(NC(=O)c3cccnc3N3CC4(CCOCC4)C3)cc1)CC2` [Example 19] was less than 10 nM.

For `O=C(Nc1c(F)cccc1Cl)c1cc2c(s1)-c1ccc(F)cc1N(C(=O)c1ccc(NC(=O)c3cccnc3N3CC4(CCOCC4)C3)cc1)CC2` [Example 20], the concentration giving a half-maximal response (EC50) was less than 10 nM.

As to `O=C(Nc1c(F)cc(F)cc1F)c1cc2c(s1)-c1ccc(F)cc1N(C(=O)c1ccc(NC(=O)c3cccnc3N3CC4(CCOCC4)C3)cc1)CC2` [Example 22], the EC50 is less than 10 nM. As for `O=C(Nc1c(F)cc(F)cc1Cl)c1cc2c(s1)-c1ccc(F)cc1N(C(=O)c1ccc(NC(=O)c3ccc(C(F)(F)F)nc3N3CC4(CCOCC4)C3)cc1)CC2` [Example 23], the figure is 10 to 50 nM; as for `COc1ccc(C(=O)Nc2ccc(C(=O)N3CCc4cc(C(=O)Nc5c(F)cc(F)cc5Cl)sc4-c4ccc(F)cc43)cc2)c(N2CC3(CCOCC3)C2)n1` [Example 24], 10 to 50 nM. As for `O=C(Nc1c(F)cc(F)cc1Cl)c1cc2c(s1)-c1ccc(F)cc1N(C(=O)c1ccc(NC(=O)c3cc4ccccc4nc3N3CC4(CCOCC4)C3)cc1)CC2` [Example 25], the figure is 10 to 50 nM; as for `O=C(Nc1c(F)cc(F)cc1Cl)c1cc2c(s1)-c1ccc(F)cc1N(C(=O)c1ccc(NC(=O)c3cc(F)cnc3N3CC4(CCOCC4)C3)cc1)CC2` [Example 26], less than 10 nM; as for `O=C(Nc1c(F)cc(F)cc1Cl)c1cc2c(s1)-c1ccc(F)cc1N(C(=O)c1ccc(NC(=O)c3ccc(-c4cccs4)nc3N3CC4(CCOCC4)C3)cc1)CC2` [Example 27], 10 to 50 nM. `O=C(Nc1c(F)cc(F)cc1Cl)c1cc2c(s1)-c1ccc(F)cc1N(C(=O)c1ccc(NC(=O)c3cc(-c4cccs4)cnc3N3CC4(CCOCC4)C3)cc1)CC2` [Example 28]: the EC50 was in the range of 10 to 50 nM.

On to `O=C(Nc1c(F)cc(F)cc1Cl)c1cc2c(s1)-c1ccc(F)cc1N(C(=O)c1ccc(NC(=O)c3cc(C(F)(F)F)cnc3N3CC4(CCOCC4)C3)cc1)CC2` [Example 29], for which the half-maximal effective concentration (EC50) lay in the range of 10 to 50 nM. The value for `O=C(Nc1c(F)cc(F)cc1Cl)c1cc2c(s1)-c1ccc(F)cc1N(C(=O)c1ccc(NC(=O)c3cc(C(F)(F)F)cnc3N3CCC4(CC3)COC4)cc1)CC2` [Example 30] was 10 to 50 nM; that for `O=C(Nc1c(F)cc(F)cc1Cl)c1cc2c(s1)-c1ccc(F)cc1N(C(=O)c1ccc(NC(=O)c3cc4ccccc4nc3N3C4CCC3COC4)cc1)CC2` [Example 32] was greater than 50 nM. The value for `O=C(Nc1c(F)cc(F)cc1Cl)c1cc2c(s1)-c1ccc(F)cc1N(C(=O)c1ccc(NC(=O)c3cc4ccccc4nc3N3CCS(=O)(=O)CC3)cc1)CC2` [Example 33] was greater than 50 nM; that for `O=C(Nc1c(F)cc(F)cc1Cl)c1cc2c(s1)-c1ccc(F)cc1N(C(=O)c1ccc(NC(=O)c3cc4ccccc4nc3N3CCCS(=O)(=O)CC3)cc1)CC2` [Example 34] was greater than 50 nM.

With `O=C(Nc1c(F)cccc1F)c1cc2c(s1)-c1ccc(F)cc1N(C(=O)c1ccc(NC(=O)c3cc(F)cnc3N3CC4(CCOCC4)C3)cc1)CC2` [Example 35], the half-maximal effective concentration (EC50) is less than 10 nM. The value for `Cc1cccc(F)c1NC(=O)c1cc2c(s1)-c1ccc(F)cc1N(C(=O)c1ccc(NC(=O)c3cc(F)cnc3N3CC4(CCOCC4)C3)cc1)CC2` [Example 36] was less than 10 nM. As for `O=C(Nc1c(F)cccc1Cl)c1cc2c(s1)-c1ccc(F)cc1N(C(=O)c1ccc(NC(=O)c3cc(F)cnc3N3CC4(CCOCC4)C3)cc1)CC2` [Example 37], the figure is less than 10 nM. Take `O=C(Nc1ccc(C(=O)N2CCc3cc(-c4nc5ccccc5[nH]4)sc3-c3ccc(F)cc32)cc1)c1cccnc1N1CC2(CCOCC2)C1` [Example 38]: the EC50 is 10 to 50 nM.

For the compound `O=C(Nc1ccc(C(=O)N2CCc3cc(-c4nc5ccc(F)cc5[nH]4)sc3-c3ccc(F)cc32)cc1)c1cccnc1N1CC2(CCOCC2)C1` [Example 39], the EC50 lay in the range of 10 to 50 nM. Regarding `O=C(Nc1ccc(C(=O)N2CCc3cc(-c4nc5cccc(F)c5[nH]4)sc3-c3ccc(F)cc32)cc1)c1cccnc1N1CC2(CCOCC2)C1` [Example 40], the concentration for a half-maximal effect (EC50) was in the range of 10 to 50 nM.

On to `O=C(Nc1ccc(C(=O)N2CCc3cc(-c4nc5cc(F)c(F)cc5[nH]4)sc3-c3ccc(F)cc32)cc1)c1cccnc1N1CC2(CCOCC2)C1` [Example 41], for which the EC50 is greater than 50 nM. As for `O=C(Nc1ccc(C(=O)N2CCc3cc(-c4nc5ccc(F)cc5[nH]4)sc3-c3ccc(F)cc32)cc1)c1cc(F)cnc1N1CC2(CCOCC2)C1` [Example 42], the figure is 10 to 50 nM. On to `O=C(Nc1ccc(C(=O)N2CCc3cc(-c4nc5cccc(F)c5[nH]4)sc3-c3ccc(F)cc32)cc1)c1cc(F)cnc1N1CC2(CCOCC2)C1` [Example 43], for which the EC50 was in the range of 10 to 50 nM.

For `O=C(Nc1ccc(C(=O)N2CCc3cc(-c4nc5cccc(Cl)c5[nH]4)sc3-c3ccc(F)cc32)cc1)c1cc(F)cnc1N1CC2(CCOCC2)C1` [Example 44], the EC50 was 10 to 50 nM. In the case of `O=C(Nc1ccc(C(=O)N2CCc3cc(-c4ccn[nH]4)sc3-c3ccc(F)cc32)cc1)c1cc(F)cnc1N1CC2(CCOCC2)C1` [Example 45], the EC50 is 10 to 50 nM.
